One experiment concerns the target T1, HiBit-BRM fusion protein (Homo sapiens, UniProt P51531).
T1 construct: expressed in transfected cells
The experiment in a line: HiBiT-BRM cell-based degradation assay (Nano-Glo HiBiT Lytic Detection, 24 h). The note with it: stable HeLa cell line expressing HiBiT-BRM, top dose 30 μM. An outline of the steps:
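Luminescence from HiBiT/LgBiT complementation after lysis reports remaining HiBiT-BRM in stable HeLa cells exposed to compound for 24 h. Dosing used 3-fold serial dilutions, 10 points, 30 μM top final concentration. DMSO and a 2 μM BRM/BRG1 degrader standard defined 0% and 100% degradation.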

In experiment [1] the target is T2, HiBit-BRG1 fusion protein (Homo sapiens, UniProt P51532).
T2 construct: expressed in transfected cells
T2 sequence (P51532 whole entry, the tested form may be a part): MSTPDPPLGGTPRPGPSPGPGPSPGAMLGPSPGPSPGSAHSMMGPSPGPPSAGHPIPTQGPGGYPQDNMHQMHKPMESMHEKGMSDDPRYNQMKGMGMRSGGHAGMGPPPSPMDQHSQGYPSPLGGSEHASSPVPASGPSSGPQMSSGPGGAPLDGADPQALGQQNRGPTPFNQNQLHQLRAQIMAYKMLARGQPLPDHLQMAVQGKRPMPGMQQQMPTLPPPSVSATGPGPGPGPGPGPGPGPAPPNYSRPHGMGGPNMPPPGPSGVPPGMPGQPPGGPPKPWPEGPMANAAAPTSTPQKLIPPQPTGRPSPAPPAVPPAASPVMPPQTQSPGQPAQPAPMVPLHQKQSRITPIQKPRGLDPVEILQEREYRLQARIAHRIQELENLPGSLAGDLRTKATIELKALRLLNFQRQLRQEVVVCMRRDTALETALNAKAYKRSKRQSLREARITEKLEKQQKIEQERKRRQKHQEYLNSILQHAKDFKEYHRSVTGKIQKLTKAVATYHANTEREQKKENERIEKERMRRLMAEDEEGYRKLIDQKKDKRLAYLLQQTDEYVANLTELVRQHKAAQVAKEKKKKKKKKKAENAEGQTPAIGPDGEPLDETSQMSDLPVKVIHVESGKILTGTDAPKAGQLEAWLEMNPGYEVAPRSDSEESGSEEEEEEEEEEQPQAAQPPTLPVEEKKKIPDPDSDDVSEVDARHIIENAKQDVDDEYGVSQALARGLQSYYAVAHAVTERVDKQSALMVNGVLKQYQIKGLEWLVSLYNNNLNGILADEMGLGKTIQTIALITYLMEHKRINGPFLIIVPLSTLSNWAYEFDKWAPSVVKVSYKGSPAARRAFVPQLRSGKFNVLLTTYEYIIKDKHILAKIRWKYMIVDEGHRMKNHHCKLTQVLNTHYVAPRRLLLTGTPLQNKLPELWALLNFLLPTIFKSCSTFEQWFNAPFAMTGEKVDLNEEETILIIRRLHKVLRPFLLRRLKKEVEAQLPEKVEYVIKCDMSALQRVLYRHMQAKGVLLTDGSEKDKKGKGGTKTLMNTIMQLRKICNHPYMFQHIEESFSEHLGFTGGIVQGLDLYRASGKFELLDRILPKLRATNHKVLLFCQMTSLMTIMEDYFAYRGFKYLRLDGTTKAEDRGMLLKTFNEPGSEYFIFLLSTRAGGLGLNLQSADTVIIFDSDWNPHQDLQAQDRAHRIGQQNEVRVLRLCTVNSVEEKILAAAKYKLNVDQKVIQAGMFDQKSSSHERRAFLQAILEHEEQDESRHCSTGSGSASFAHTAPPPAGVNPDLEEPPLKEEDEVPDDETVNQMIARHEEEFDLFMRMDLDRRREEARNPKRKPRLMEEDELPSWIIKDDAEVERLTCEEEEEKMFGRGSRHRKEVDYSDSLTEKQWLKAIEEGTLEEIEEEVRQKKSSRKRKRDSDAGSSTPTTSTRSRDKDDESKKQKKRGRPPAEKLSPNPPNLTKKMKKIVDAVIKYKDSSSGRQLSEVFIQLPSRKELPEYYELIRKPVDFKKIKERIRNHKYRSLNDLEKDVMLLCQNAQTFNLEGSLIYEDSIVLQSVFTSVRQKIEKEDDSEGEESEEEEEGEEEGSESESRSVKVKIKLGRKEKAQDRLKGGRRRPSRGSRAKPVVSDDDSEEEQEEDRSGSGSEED
In words: HiBiT-BRG1 cell-based degradation assay (Nano-Glo HiBiT Lytic Detection, 24 h). The note with it: stable HeLa cell line expressing HiBit-BRG1 and LgBit, top dose 30 μM, read-out: BRG1 HiBit Degradation Maximum (%). A digest of the protocol:
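HeLa cells stably expressing HiBiT-BRG1 plus LgBiT were treated with 10-point 3-fold compound dilutions (top 30 μM final) for 24 h. Lytic Nano-Glo HiBiT luminescence was read. % degradation was normalised between DMSO (high control) and 2 μM of a reference BRM/BRG1 degrader (low control).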

Where only a bound is given, the exact number is not on record here.

T1 sequence (P51531 whole entry, the tested form may be a part): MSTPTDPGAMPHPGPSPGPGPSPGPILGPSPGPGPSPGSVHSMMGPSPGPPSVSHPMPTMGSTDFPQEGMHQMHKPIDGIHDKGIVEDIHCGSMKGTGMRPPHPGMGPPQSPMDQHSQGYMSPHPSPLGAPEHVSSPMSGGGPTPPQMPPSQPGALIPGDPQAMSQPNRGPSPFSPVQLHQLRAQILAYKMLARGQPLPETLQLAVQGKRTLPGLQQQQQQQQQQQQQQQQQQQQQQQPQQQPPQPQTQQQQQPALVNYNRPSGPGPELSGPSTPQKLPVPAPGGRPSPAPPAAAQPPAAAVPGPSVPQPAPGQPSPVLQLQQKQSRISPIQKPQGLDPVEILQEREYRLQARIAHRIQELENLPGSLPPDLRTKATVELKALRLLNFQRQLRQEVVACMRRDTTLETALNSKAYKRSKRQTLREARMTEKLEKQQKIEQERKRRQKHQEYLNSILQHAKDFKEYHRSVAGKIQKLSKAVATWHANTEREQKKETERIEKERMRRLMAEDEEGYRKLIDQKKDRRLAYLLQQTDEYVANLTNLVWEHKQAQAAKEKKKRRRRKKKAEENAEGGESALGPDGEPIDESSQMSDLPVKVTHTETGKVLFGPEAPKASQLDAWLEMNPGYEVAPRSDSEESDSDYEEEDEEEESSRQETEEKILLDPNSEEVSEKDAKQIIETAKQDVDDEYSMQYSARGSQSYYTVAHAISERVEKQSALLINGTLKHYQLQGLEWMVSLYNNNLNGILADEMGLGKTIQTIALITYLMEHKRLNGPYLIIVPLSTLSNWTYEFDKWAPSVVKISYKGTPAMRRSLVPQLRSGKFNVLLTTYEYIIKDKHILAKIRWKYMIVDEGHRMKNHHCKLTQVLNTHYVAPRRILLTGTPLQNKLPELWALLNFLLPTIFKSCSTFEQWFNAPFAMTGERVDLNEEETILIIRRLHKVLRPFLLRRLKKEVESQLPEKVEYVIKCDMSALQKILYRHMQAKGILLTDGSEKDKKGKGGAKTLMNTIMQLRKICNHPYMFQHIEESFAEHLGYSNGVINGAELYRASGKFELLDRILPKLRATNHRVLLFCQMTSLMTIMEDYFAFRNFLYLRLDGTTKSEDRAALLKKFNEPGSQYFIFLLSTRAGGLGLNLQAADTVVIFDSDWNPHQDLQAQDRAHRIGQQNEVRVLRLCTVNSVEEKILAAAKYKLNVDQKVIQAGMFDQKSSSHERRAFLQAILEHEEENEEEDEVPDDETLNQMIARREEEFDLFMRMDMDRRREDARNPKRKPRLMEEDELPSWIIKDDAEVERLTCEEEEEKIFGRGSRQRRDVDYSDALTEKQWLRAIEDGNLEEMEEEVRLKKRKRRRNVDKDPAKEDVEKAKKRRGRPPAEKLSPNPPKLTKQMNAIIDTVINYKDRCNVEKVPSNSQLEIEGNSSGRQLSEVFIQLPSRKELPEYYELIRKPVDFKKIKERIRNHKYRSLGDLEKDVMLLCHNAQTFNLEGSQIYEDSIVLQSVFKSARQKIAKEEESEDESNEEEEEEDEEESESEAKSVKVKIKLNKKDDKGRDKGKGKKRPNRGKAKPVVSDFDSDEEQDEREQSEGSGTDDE

With `Nc1nnc(-c2ccccc2O)cc1OCC12CC(C(=O)N3CC(Oc4ccc5c(c4)C(=O)N(C4CCC(=O)NC4=O)C5=O)C3)(C1)C2` (stereo not drawn) [Compound 96, 5-((1-(3-(((3-amino-6-(2-hydroxyphenyl)pyridazin-4-yl)oxy)methyl)bicyclo[1.1.1]pentane-1-carbonyl)azetidin-3-yl)oxy)-2-(2,6-dioxopiperidin-3-yl)isoindoline-1,3-dione], the “BRM HiBit Degradation Maximum (%)” value on HiBit-BRM fusion protein is listed as “C (“C” indicates maximum degradation < 50%)”. Also, the Dmax in experiment [1] was below 50%.
For `Nc1nnc(-c2ccccc2O)cc1OCC12CC(CNC(=O)CCCCCCCCCCNc3cccc4c3C(=O)N(C3CCC(=O)NC3=O)C4=O)(C1)C2` (stereo not drawn) [Compound 8, N-[[3-([[3-amino-6-(2-hydroxyphenyl)pyridazin-4-yl]oxy]methyl)bicyclo[1.1.1]pentan-1-yl]methyl]-11-[[2-(2,6-dioxopiperidin-3-yl)-1,3-dioxoisoindol-4-yl]amino]undecanamide] the same measures were “C (“C” indicates maximum degradation < 50%)” and below 50%.
The corresponding values for `Nc1nnc(-c2ccccc2O)cc1OCC12CC(C(=O)N3CCC(CN4CCN(c5ccc6c(c5)C(=O)N(C5CCC(=O)NC5=O)C6=O)CC4)CC3)(C1)C2` (stereo not drawn) [Compound 101, 5-(4-((1-(3-(((3-amino-6-(2-hydroxyphenyl)pyridazin-4-yl)oxy)methyl)bicyclo[1.1.1]pentane-1-carbonyl)piperidin-4-yl)methyl)piperazin-1-yl)-2-(2,6-dioxopiperidin-3-yl)isoindoline-1,3-dione] are “B (“B” indicates maximum degradation ≥ 50%)” and below 50%.
For `Nc1nnc(-c2ccccc2O)cc1OCC12CC(C(=O)NCCOCCOCCNc3ccc4c(c3)C(=O)N(C3CCC(=O)NC3=O)C4=O)(C1)C2` (stereo not drawn) [Compound 66, 3-(((3-amino-6-(2-hydroxyphenyl)pyridazin-4-yl)oxy)methyl)-N-(2-(2-(2-((2-(2,6-dioxopiperidin-3-yl)-1,3-dioxoisoindolin-5-yl)amino)ethoxy)ethoxy)ethyl)bicyclo[1.1.1]pentane-1-carboxamide] the same measures were “C (“C” indicates maximum degradation < 50%)” and below 50%.
Regarding `CN(CCNC(=O)COc1cccc2c1C(=O)N(C1CCC(=O)NC1=O)C2=O)CCNC(=O)C12CC(COc3cc(-c4ccccc4O)nnc3N)(C1)C2` (stereo not drawn) [Compound 75, 3-(((3-amino-6-(2-hydroxyphenyl)pyridazin-4-yl)oxy)methyl)-N-(2-((2-(2-((2-(2,6-dioxopiperidin-3-yl)-1,3-dioxoisoindolin-4-yl)oxy)acetamido)ethyl)(methyl)amino)ethyl)bicyclo[1.1.1]pentane-1-carboxamide], on HiBit-BRM fusion protein, the “BRM HiBit Degradation Maximum (%)” value is on record as “C (“C” indicates maximum degradation < 50%)”. The Dmax in experiment [1] is below 50%.
Regarding `Nc1nnc(-c2ccccc2O)cc1OCCC12CC(NC(=O)CCN3CC4(C3)CN(c3ccc5c(c3)C(=O)N(C3CCC(=O)NC3=O)C5=O)C4)(C1)C2` (stereo not drawn) [Compound 34, N-(3-(2-((3-amino-6-(2-hydroxyphenyl)pyridazin-4-yl)oxy)ethyl)bicyclo[1.1.1]pentan-1-yl)-3-(6-(2-(2,6-dioxopiperidin-3-yl)-1,3-dioxoisoindolin-5-yl)-2,6-diazaspiro[3.3]heptan-2-yl)propanamide], at HiBit-BRM fusion protein, the “BRM HiBit Degradation Maximum (%)” value was “C (“C” indicates maximum degradation < 50%)”. For the same compound, the Dmax in experiment [1] is below 50%.
For `Nc1nnc(-c2ccccc2O)cc1OCC12CC(C(=O)NCCOCc3cccc(COCCOc4ccc5c(c4)C(=O)N(C4CCC(=O)NC4=O)C5=O)c3)(C1)C2` (stereo not drawn) [Compound 84, 3-(((3-amino-6-(2-hydroxyphenyl)pyridazin-4-yl)oxy)methyl)-N-(2-((3-((2-((2-(2,6-dioxopiperidin-3-yl)-1,3-dioxoisoindolin-5-yl)oxy)ethoxy)methyl)benzyl)oxy)ethyl)bicyclo[1.1.1]pentane-1-carboxamide; formic acid] the same measures were “C (“C” indicates maximum degradation < 50%)” and below 50%.
For `Nc1nnc(-c2ccccc2O)cc1OCC12CC(CNC(=O)CCCCCCCCNc3cccc4c3C(=O)N(C3CCC(=O)NC3=O)C4=O)(C1)C2` (stereo not drawn) [Compound 7, N-[[3-([[3-amino-6-(2-hydroxyphenyl)pyridazin-4-yl]oxy]methyl)bicyclo[1.1.1]pentan-1-yl]methyl]-9-[[2-(2,6-dioxopiperidin-3-yl)-1,3-dioxoisoindol-4-yl]amino]nonanamide], the “BRM HiBit Degradation Maximum (%)” value on HiBit-BRM fusion protein is listed as “C (“C” indicates maximum degradation < 50%)”. Further, the Dmax in experiment [1] was below 50%.
The corresponding values for `Nc1nnc(-c2ccccc2O)cc1OCCC12CC(NC(=O)C3CC3CNC(=O)COc3cccc4c3C(=O)N(C3CCC(=O)NC3=O)C4=O)(C1)C2` (stereo not drawn) [Compound 28, N-[3-(2-[[3-amino-6-(2-hydroxyphenyl)pyridazin-4-yl]oxy]ethyl)bicyclo[1.1.1]pentan-1-yl]-2-[(2-[[2-(2,6-dioxopiperidin-3-yl)-1,3-dioxoisoindol-4-yl]oxy]acetamido)methyl]cyclopropane-1-carboxamide] are “C (“C” indicates maximum degradation < 50%)” and below 50%.
As to `Nc1nnc(-c2ccccc2O)cc1OCC12CC(C(=O)N3CC4(CCN(CCCNc5ccc6c(c5)C(=O)N(C5CCC(=O)NC5=O)C6=O)CC4)C3)(C1)C2` (stereo not drawn) [Compound 98, 5-((3-(2-(3-(((3-amino-6-(2-hydroxyphenyl)pyridazin-4-yl)oxy)methyl)bicyclo[1.1.1]pentane-1-carbonyl)-2,7-diazaspiro[3.5]nonan-7-yl)propyl)amino)-2-(2,6-dioxopiperidin-3-yl)isoindoline-1,3-dione; formic acid], the “BRM HiBit Degradation Maximum (%)” value at HiBit-BRM fusion protein is reported as “B (“B” indicates maximum degradation ≥ 50%)”. For the same compound, in experiment [1], the Dmax was below 50%.
Turning to `Nc1nnc(-c2ccccc2O)cc1OCC12CC(C(=O)NCCCCCCCCNc3ccc4c(c3)C(=O)N(C3CCC(=O)NC3=O)C4=O)(C1)C2` (stereo not drawn) [Compound 65, 3-(((3-amino-6-(2-hydroxyphenyl)pyridazin-4-yl)oxy)methyl)-N-(8-((2-(2,6-dioxopiperidin-3-yl)-1,3-dioxoisoindolin-5-yl)amino)octyl)bicyclo[1.1.1]pentane-1-carboxamide], on HiBit-BRM fusion protein, the “BRM HiBit Degradation Maximum (%)” value is “C (“C” indicates maximum degradation < 50%)”. Besides, in experiment [1], the Dmax is below 50%.
For `CN(CCNC(=O)COc1ccc2c(c1)C(=O)N(C1CCC(=O)NC1=O)C2=O)CCNC(=O)C12CC(COc3cc(-c4ccccc4O)nnc3N)(C1)C2` (stereo not drawn) [Compound 76, 3-(((3-amino-6-(2-hydroxyphenyl)pyridazin-4-yl)oxy)methyl)-N-(2-((2-(2-((2-(2,6-dioxopiperidin-3-yl)-1,3-dioxoisoindolin-5-yl)oxy)acetamido)ethyl)(methyl)amino)ethyl)bicyclo[1.1.1]pentane-1-carboxamide], on HiBit-BRM fusion protein, the “BRM HiBit Degradation Maximum (%)” value is “C (“C” indicates maximum degradation < 50%)”. Also, in experiment [1], the Dmax was below 50%.

The values are drawn from patent US12552775B2, “Compounds and uses thereof” (Foghorn Therapeutics Inc., priority 2020, dated 2026).
